[mp] = methylphosphonate linkage
Legend:
[1] = test system: complementary RNA targets; assay: Tm of Rp-enriched versus racemic methylphosphonate oligomers with RNA (Example 33); type: binding; settings: for Tm: 2.4 μM total strand concentration, pH 7.2, 100 mM sodium chloride
[2] = test system: complementary synthetic RNA target; assay: Binding affinities of chimeric backbone oligomers to RNA (Example 35); parameters: KA (37° C.): unit not given here; settings: for Tm: 1:1 molar ratio, 2.4 micromolar total strand, pH 7.2, 100 mM NaCl; for KA (37° C.): two-state model fit
Method: The following oligonucleotides were tested for their ability to hybridize to a complementary synthetic RNA target.
The bases shown in parentheses contain the backbone modification indicated in the middle set of brackets for each description, and likewise the terminal portions of the oligomers contain linkage structures as shown in the terminal sets of brackets. The PS/DE notation indicates an alternating array of bases beginning with a phosphorothioate linkage. For example, if there are five bases in a sequence denoted as PS/DE, they include three phosphorothioate (PS) bonds and two phosphodiester (DE) bonds.
Each oligomer was mixed with its complementary synthetic RNA target in a 1:1 molar ratio in a buffer system consisting of 20 mM sodium phosphate buffer (pH 7.2), 100 mM NaCl, 0.03% potassium sarkosylate and 0.1 mM EDTA; total strand concentration=2.4 micromolar. The resulting solutions were heated to 70° C. and slowly cooled to 4° C. over a time period of approximately 4-6 hours. […] The binding constants at 37° C.

[3] = test system: endogenous eukaryotic RNaseH derived from HeLa cell nuclear extracts; type: biochemical; settings: 10 μM oligomer, 1 μM RNA target
S1-endonuclease = assay: Stability to nuclease digestion by S1-endonuclease (Example 37); type: in vitro ADME; settings: S1-endonuclease 0.5 units/mL, pH 5.0, 37° C.; 50% full length oligomer digested
Method: The following oligomers were tested for nuclease stability in the presence of S1-endonuclease.
S1-endonuclease was purchased from Promega Corp. (Catalog #E576B, Madison, Wis.). Aliquots of each chimeric oligomer (0.05-0.075 OD260 units) were individually added to polypropylene microcentrifuge tubes containing S1-endonuclease (0.5 units/mL) in 30 mM sodium acetate (pH 5.0), 50 mM NaCl, 1.0 mM zinc acetate and 5% glycerol; total reaction volume=10 μL. These tubes were incubated at 37° C. for specified time periods, quickly frozen in dry ice and then stored in a freezer at -20° C. […] Column=Vydac Protein C4 (catalog #214TP54, 4.9 mm i.d.×250 mm long). Buffer A=50 mM triethylammonium acetate (pH 7)/1% acetonitrile; Buffer B=50 mM triethylammonium acetate (pH 7)/50% acetonitrile. […] The samples were diluted with water (50 μL) and injected onto the column using a 100 μL sample loop. Peaks corresponding to full length oligomer and its degradation products were detected by monitoring at 260 nm. The amount of degradation occurring in each reaction was determined by measuring the reduction in peak area for the full-length oligomer (identified by comparison to an external control and/or by coinjecting undigested oligomer as an internal control). The data is shown in tabular format below, and in graphic format in FIG. 1.

[4] = Stability to nuclease digestion in 10% fetal calf serum (Example 38); type: in vitro ADME; settings: pH 8.0, 37° C., 50% full length oligomer digested, first three time points
Method: Multiple samples of each chimeric oligomer were prepared in 1.5 mL polypropylene microcentrifuge tubes on ice. Each sample contained oligomer (0.1 OD260 unit), 10% fetal calf serum (FCS, Gemini Bioproducts, Calabasas, Calif.), 20 mM HEPES (pH 8.0), 0.2% paramethylsulfonyl fluoride (PMSF), 175 mM KCl, 0.1 mM dithiothreitol, 0.1 mM EDTA, 2 mM MgCl2 and 4% glycerol--total volume=100 μL. The samples were incubated at 37° C. for specified time periods and then diluted with 0.4% NP-40/acetonitrile (35 μL), quickly frozen on dry ice and stored at -20° C. Samples were then individually thawed, diluted with water (635 μL) and analyzed immediately by reversed-phase HPLC according to the method given in the preceding example (except that a 2 mL sample loop was used to load the samples onto the column). Results are shown in tabular format below, and in graphical format in FIG. 2.

pG1035 (SplicerCAT) = assay: Inhibition of CAT expression, splicing target pG1035 (SplicerCAT), in COS-7 cells; type: cell-based, African Green Monkey; settings: 1.0 μM oligomer; ± std error; normalized to protein and luciferase; chimeric oligomers also normalized to pG1036
Method: COS-7 cells were transiently transfected with plasmids encoding either a target reporter gene or a control non-target reporter gene. These cells were then treated with various chimeric antisense or control oligomers and then assayed for the expression of the reporter genes.
pG1035: Splicer CAT, inserted into a pRc/CMV vector
COS 7 cells were plated at 1.5×10^5 cells/well in a 12 well plate format on the day before transfections began. All cultures were maintained at 37° C. On the next day, the transfection mixes were prepared. For each well of a 12 well plate, 1.0 μM oligomer was combined with 1 μg pGL2 or pSVβ+1 μg of the target CAT plasmid in 0.5 ml of Optimem (Gibco/BRL) and 18.75 μg Transfectam (for chimeric oligomers, Promega) or Lipofectamine (for all PS oligomers, Promega) also in 0.5 ml of Optimem. These quantities gave a 6.9 or 4.5 or 2.0 to 1 cationic lipid to oligomer plus DNA ratio, respectively, in one milliliter total. pGL2 and pSVβ served as transfection and oligomer specificity controls. […]
The cell lysates were then assayed for CAT, and luciferase or […] activity, and the total protein concentration was determined as described below. […]
[…] of reaction mixture was then added to each tube, which was then incubated for, typically, approximately 1 hour in a 37° C. oven. […] The sample was then counted in a Packard scintillation counter.
This assay was performed generally as follows according to standard procedures. 20 μof lysate was combined with 100 μl of luciferase assay reagent (Promega) and counted in a scintillation counter (Packard) within 20 seconds (as recommended by Promega). […]
Six μl of lysate per well was added, followed by 300 μl Coomassie Protein Assay Reagent (Pierce) per well. The individual sample plates were then read at A570 on a microplate reader (Molecular Devices). […]
Oligomers were transfected into COS-7 cells and lysates were made and assayed as described previously. […] N.D.=not determined. […]

| Substance | Tm [1] | Tm [2] | KA (37° C.) [2] | further results |
| --- | --- | --- | --- | --- |
| 2571-1: 5'-(G*T)(C*T)(T*C)(C*A)(T*G)(C*A)(T*G)(T*T)(G*T)-C-3', 75% MP(Rp) [Oligomer 2571-1] | 46.3 °C | – | – | ΔTm ([1]; Rp-enriched versus racemic oligomer of the pair): 8.2 °C |
| 3214-1: 5'-GTCTTCCA(TGCAT)GTTGTCC-3' [MP(Rp)/DE][PS/DE][MP(Rp)/DE] [Oligomer 3214-1] | – | 61.0 °C | 2.3 × 10^14 | RNaseH Cleavage after 2 Hrs. at 37° C. [3]: 38.0%; Half-Life for Degradation (S1-endonuclease): 5.0 h; Half-Life for Degradation [4]: 4.3 h |
| 2253-1: 5'-AGA-GAG-AGA-GAG-AG-T-3', racemic methylphosphonate (AGAGAGAGAGAGAGT; all [mp], sugars by position not given here) [Oligomer 2253-1] | 48.9 °C | – | – | – |
| XV-7: 24mer, all phosphorothioate: 5' ccc tga gag aga gag aga ggt tcg 3' (CCCTGAGAGAGAGAGAGAGGTTCG; all phosphorothioate, sugars by position and methylation of C not given here) | – | – | – | percent inhibition of CAT expression, pG1035 = splicing (pG1035 (SplicerCAT)): 17 ± 6% |
| 3256-1: 5'-GTCTTCCA(TGCAT)GTTGTCC-3' [MP(Rp)/DE][PS][MP(Rp)/DE] [Oligomer 3256-1] | – | 60.1 °C | 5.5 × 10^13 | RNaseH Cleavage after 2 Hrs. at 37° C. [3]: 18.7%; Half-Life for Degradation (S1-endonuclease): 12.5 h; Half-Life for Degradation [4]: 16.2 h |
| 2687-1: 5'-GTCTTCCA(TGCAT)GTTGTCC-3' [75% MP(Rp)][DE][75% MP(Rp)] [Oligomer 2687-1] | – | 52.8 °C | 2.6 × 10^9 | – |
| 2624-1: 3'-CTGTTG TACGT ACCTTCTG-5' Racemic MP (CTGTTGTACGTACCTTCTG; racemic methylphosphonate, chemistry not fully specified; listed 3' to 5') [Oligomer 2624-1] | 38.6 °C | – | – | – |
| 2688-1: 5'-ATG-GTG-TCT-GTT-TGA-GGT-T-3', racemic methylphosphonate (ATGGTGTCTGTTTGAGGTT; all [mp], sugars by position and methylation of C not given here) [Oligomer 2688-1] | 40.0 °C | – | – | – |
| 2681-1: 5'-GTCTTCCA(TGCAT)GTTGTCC-3' [MP][PS/DE][MP] [Oligomer 2681-1] | – | 44.1 °C | 2.1 × 10^7 | Half-Life for Degradation (S1-endonuclease): 12.2 h; Half-Life for Degradation [4]: 8.1 h |
| 1634-1: 5'-TAG-CTT-CCT-TAG-CTC-CTG-3', racemic methylphosphonate (TAGCTTCCTTAGCTCCTG; all [mp], sugars by position and methylation of C not given here) [Oligomer 1634-1] | 38.2 °C | – | – | – |
| 3257-1: 5'-GTCTTC(CATGCAT)GTTGTCC-3' [MP(Rp)/DE][PS/DE][MP(Rp)/DE] [Oligomer 3257-1] | – | 60.9 °C | 2.1 × 10^14 | – |
| 2517-1: 5'-GTG-TGT-GTG-TGT-GTG-TA-3'-3', racemic methylphosphonate (GTGTGTGTGTGTGTGTA; all [mp], sugars by position not given here; further chemistry not fully specified) [Oligomer 2517-1] | 41.0 °C | – | – | – |

From patent publication US6262036A, “Method for inhibiting RNA translation using chimeric oligonucleoside compounds” (priority 2000, dated 2001)
